Assay results from ChEMBL document CHEMBL1201862, “PubChem BioAssay data set” (2004).
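Method: 48-hour compound exposure of cells in 96-well plates, five concentrations, linear interpolation of endpoints. Here, GI50 denotes the concentration required for 50% inhibition of growth.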 The source made the active and inactive calls. Cut-off read from the data, not from the text of the source: active = GI50 up to about 1.1 µM and inactive = higher.

Columns and labels:
Assay in all cases: growth of human tumour cells (NCI), 48 h
M14 = test system: M14
ACHN = test system: ACHN
Malme-3M = test system: Malme-3M
UACC-257 = test system: UACC-257
SW-620 = test system: SW-620
DMS-273 = test system: DMS-273
SK-OV-3 = test system: SK-OV-3
OVCAR-3 = test system: OVCAR-3
SF-268 = test system: SF-268
IGROV-1 = test system: IGROV-1
M19-MEL = test system: M19-MEL
HT-29 = test system: HT-29
NCI-H460 = test system: NCI-H460
RPMI-8226 = test system: RPMI-8226
SK-MEL-5 = test system: SK-MEL-5
U-251 = test system: U-251
SK-MEL-2 = test system: SK-MEL-2
UO-31 = test system: UO-31
OVCAR-5 = test system: OVCAR-5
SNB-78 = test system: SNB-78
OVCAR-4 = test system: OVCAR-4
OVCAR-8 = test system: OVCAR-8
XF498 = test system: XF498
K562 = test system: K562
TK-10 = test system: TK-10
786-0 = test system: 786-0
COLO 205 = test system: COLO 205
KM12 = test system: KM12
HOP-18 = test system: HOP-18
HCT-116 = test system: HCT-116
HCT-15 = test system: HCT-15
NCI-H23 = test system: NCI-H23
SK-MEL-28 = test system: SK-MEL-28
UACC-62 = test system: UACC-62
SNB-19 = test system: SNB-19
HCC 2998 = test system: HCC 2998
SN12C = test system: SN12C
DLD-1 = test system: DLD-1
A498 = test system: A498
SNB-75 = test system: SNB-75
KM-20L2 = test system: KM-20L2
HOP-62 = test system: HOP-62
DMS-114 = test system: DMS-114
NCI-H226 = test system: NCI-H226
HOP-92 = test system: HOP-92
CAKI-1 = test system: CAKI-1
CCRF-CEM = test system: CCRF-CEM
RXF 631 = test system: RXF 631
A549 = test system: A549
SF-295 = test system: SF-295
EKVX = test system: EKVX
SF-539 = test system: SF-539
LOX IMVI = test system: LOX IMVI
LXFL 529 = test system: LXFL 529
NCI-H522 = test system: NCI-H522
HL-60 = test system: HL-60
MOLT-4 = test system: MOLT-4
RXF 393 = test system: RXF 393
SR = test system: SR

Structure (SMILES): S=c1[nH]c2ccc(Br)cc2c(=S)n1-c1ccccc1
- GI50 (M14): 20.7 µM (inactive)
- GI50 (ACHN): 20.3 µM (inactive)
- GI50 (Malme-3M): 17.5 µM (inactive)
- GI50 (UACC-257): 16.4 µM (inactive)
- GI50 (SW-620): 32.7 µM (inactive)
- GI50 (DMS-273): 17.1 µM (inactive)
- GI50 (SK-OV-3): 43.4 µM (inactive)
- GI50 (OVCAR-3): 20.7 µM (inactive)
- GI50 (SF-268): 11 µM (inactive)
- GI50 (IGROV-1): 20.6 µM (inactive)
- GI50 (M19-MEL): 17.6 µM (inactive)
- GI50 (HT-29): 21.9 µM (inactive)
- GI50 (NCI-H460): 12.6 µM (inactive)
- GI50 (RPMI-8226): 8.26 µM (inactive)
- GI50 (SK-MEL-5): 16.4 µM (inactive)
- GI50 (U-251): 6.58 µM (inactive)
- GI50 (SK-MEL-2): 16.4 µM (inactive)
- GI50 (UO-31): 16.4 µM (inactive)
- GI50 (OVCAR-5): 32.5 µM (inactive)
- GI50 (SNB-78): 49.3 µM (inactive)
- GI50 (OVCAR-4): 28.7 µM (inactive)
- GI50 (OVCAR-8): 30.5 µM (inactive)
- GI50 (XF498): 19.1 µM (inactive)
- GI50 (K562): 29.2 µM (inactive)
- GI50 (TK-10): 42.4 µM (inactive)
- GI50 (786-0): 24.5 µM (inactive)
- GI50 (COLO 205): 22.2 µM (inactive)
- GI50 (KM12): 16.9 µM (inactive)
- GI50 (HOP-18): 16.5 µM (inactive)
- GI50 (HCT-116): 8.75 µM (inactive)
- GI50 (HCT-15): 16.1 µM
- GI50 (NCI-H23): 10.7 µM (inactive)
- GI50 (SK-MEL-28): 9.89 µM (inactive)
- GI50 (UACC-62): 10.5 µM (inactive)
- GI50 (SNB-19): 5.85 µM (inactive)
- GI50 (HCC 2998): 13.7 µM (inactive)
- GI50 (SN12C): 20.6 µM (inactive)
- GI50 (DLD-1): 28.7 µM (inactive)
- GI50 (A498): 32.4 µM (inactive)
- GI50 (SNB-75): 34.2 µM (inactive)
- GI50 (KM-20L2): 35.2 µM (inactive)
- GI50 (HOP-62): 24.4 µM (inactive)
- GI50 (DMS-114): 16.9 µM (inactive)
- GI50 (NCI-H226): 24.5 µM (inactive)
- GI50 (HOP-92): 20 µM (inactive)
- GI50 (CAKI-1): 29.2 µM (inactive)
- GI50 (CCRF-CEM): 11.8 µM (inactive)
- GI50 (RXF 631): 26 µM (inactive)
- GI50 (A549): 26.7 µM (inactive)
- GI50 (SF-295): 16.9 µM (inactive)
- GI50 (EKVX): 37.2 µM (inactive)
- GI50 (SF-539): 14.8 µM (inactive)
- GI50 (LOX IMVI): 19.2 µM (inactive)

Structure (SMILES): COC(=O)c1ccccc1NC(=O)C(=O)NNC(=O)c1ccncc1
- GI50 (M14): > 100 µM (inactive)
- GI50 (ACHN): > 100 µM (inactive)
- GI50 (Malme-3M): > 100 µM (inactive)
- GI50 (UACC-257): > 100 µM (inactive)
- GI50 (SW-620): > 100 µM (inactive)
- GI50 (DMS-273): > 100 µM (inactive)
- GI50 (SK-OV-3): > 100 µM (inactive)
- GI50 (OVCAR-3): > 100 µM (inactive)
- GI50 (LXFL 529): > 100 µM (inactive)
- GI50 (SF-268): > 10 µM (inactive)
- GI50 (IGROV-1): > 100 µM (inactive)
- GI50 (M19-MEL): > 100 µM (inactive)
- GI50 (HT-29): > 100 µM (inactive)
- GI50 (NCI-H460): > 100 µM (inactive)
- GI50 (SK-MEL-5): > 100 µM (inactive)
- GI50 (NCI-H522): > 100 µM (inactive)
- GI50 (UO-31): > 100 µM (inactive)
- GI50 (OVCAR-4): > 100 µM (inactive)
- GI50 (OVCAR-8): > 100 µM (inactive)
- GI50 (XF498): > 100 µM (inactive)
- GI50 (TK-10): > 100 µM (inactive)
- GI50 (786-0): > 100 µM (inactive)
- GI50 (COLO 205): > 100 µM (inactive)
- GI50 (KM12): > 100 µM (inactive)
- GI50 (HOP-18): > 100 µM (inactive)
- GI50 (HCT-116): > 100 µM (inactive)
- GI50 (HCT-15): > 100 µM
- GI50 (NCI-H23): > 100 µM (inactive)
- GI50 (SK-MEL-28): > 100 µM (inactive)
- GI50 (UACC-62): > 100 µM (inactive)
- GI50 (SNB-19): > 100 µM (inactive)
- GI50 (HCC 2998): > 100 µM (inactive)
- GI50 (SN12C): > 100 µM (inactive)
- GI50 (DLD-1): > 100 µM (inactive)
- GI50 (SNB-75): > 100 µM (inactive)
- GI50 (KM-20L2): > 100 µM (inactive)
- GI50 (HOP-62): > 100 µM (inactive)
- GI50 (HL-60): > 100 µM (inactive)
- GI50 (MOLT-4): > 100 µM (inactive)
- GI50 (DMS-114): > 100 µM (inactive)
- GI50 (NCI-H226): > 100 µM (inactive)
- GI50 (HOP-92): > 100 µM (inactive)
- GI50 (CAKI-1): > 100 µM (inactive)
- GI50 (CCRF-CEM): > 100 µM (inactive)
- GI50 (RXF 631): > 100 µM (inactive)
- GI50 (RXF 393): > 100 µM (inactive)
- GI50 (SR): > 100 µM (inactive)
- GI50 (A549): > 100 µM (inactive)
- GI50 (SF-295): > 100 µM (inactive)
- GI50 (EKVX): > 100 µM (inactive)
- GI50 (SF-539): > 100 µM (inactive)
- GI50 (LOX IMVI): > 100 µM (inactive)

Structure (SMILES): CCOC(=O)NC(=O)c1cn(CC(=O)NCC(=O)NCC(=O)N2CCN(CCn3c(C)nc(C(N)=O)c3N)CC2)c(=O)[nH]c1=O
- GI50 (M14): > 100 µM (inactive)
- GI50 (ACHN): > 100 µM (inactive)
- GI50 (Malme-3M): > 100 µM (inactive)
- GI50 (UACC-257): > 100 µM (inactive)
- GI50 (SW-620): > 100 µM (inactive)
- GI50 (SK-OV-3): > 100 µM (inactive)
- GI50 (LXFL 529): > 100 µM (inactive)
- GI50 (SF-268): > 100 µM (inactive)
- GI50 (IGROV-1): > 100 µM (inactive)
- GI50 (M19-MEL): > 100 µM (inactive)
- GI50 (HT-29): > 100 µM (inactive)
- GI50 (NCI-H460): > 100 µM (inactive)
- GI50 (SK-MEL-5): > 100 µM (inactive)
- GI50 (U-251): > 100 µM (inactive)
- GI50 (SK-MEL-2): > 100 µM (inactive)
- GI50 (UO-31): > 100 µM (inactive)
- GI50 (SNB-78): > 100 µM (inactive)
- GI50 (OVCAR-8): > 100 µM (inactive)
- GI50 (XF498): > 100 µM (inactive)
- GI50 (K562): > 100 µM (inactive)
- GI50 (TK-10): > 100 µM (inactive)
- GI50 (786-0): > 100 µM (inactive)
- GI50 (COLO 205): > 100 µM (inactive)
- GI50 (KM12): > 100 µM (inactive)
- GI50 (HOP-18): > 100 µM (inactive)
- GI50 (HCT-116): > 100 µM (inactive)
- GI50 (HCT-15): > 100 µM
- GI50 (NCI-H23): > 100 µM (inactive)
- GI50 (SK-MEL-28): > 100 µM (inactive)
- GI50 (UACC-62): > 100 µM (inactive)
- GI50 (SNB-19): > 100 µM (inactive)
- GI50 (HCC 2998): > 100 µM (inactive)
- GI50 (SN12C): > 100 µM (inactive)
- GI50 (DLD-1): > 100 µM (inactive)
- GI50 (A498): > 100 µM (inactive)
- GI50 (SNB-75): > 100 µM (inactive)
- GI50 (KM-20L2): > 100 µM (inactive)
- GI50 (HOP-62): > 100 µM (inactive)
- GI50 (HL-60): > 100 µM (inactive)
- GI50 (MOLT-4): > 100 µM (inactive)
- GI50 (DMS-114): > 100 µM (inactive)
- GI50 (HOP-92): > 100 µM (inactive)
- GI50 (CAKI-1): > 100 µM (inactive)
- GI50 (CCRF-CEM): > 100 µM (inactive)
- GI50 (RXF 631): > 100 µM (inactive)
- GI50 (SR): > 100 µM (inactive)
- GI50 (A549): > 100 µM (inactive)
- GI50 (SF-295): > 100 µM (inactive)
- GI50 (SF-539): > 100 µM (inactive)
- GI50 (LOX IMVI): > 100 µM (inactive)
